Where two headings read alike, the source gives them in different places.
How the values were obtained:
Format in all cases: in vivo
[1] = system: Diabrotica balteata (rootworm larvae); experiment: Residual test on rootworm larvae (DB), Filter paper/maize seed, mortality; conditions: 48 h, read-out: DB grading of mortality
Experimental: (§1) The activity of the Product was determined using a variety of insect pests. The Product was used in the form of liquid preparations containing 500, 250 or 100 parts per million (ppm) by weight of the Product. The preparations were made by dissolving the Product in acetone and diluting the solutions with water containing 0.01% by weight of a wetting agent sold under the trade name "LISSAPOL" NX until the liquid preparations contained the required concentration of the Product. "Lissapol" is a Registered Trade Mark.
(§2) The test procedure adopted with regard to each pest was basically the same and comprised supporting a number of the pests on a medium which was usually a host plant or a foodstuff on which the pests feed, and treating either or both the pests and the medium with the preparations. The mortality of the pests was then assessed at periods usually varying from one to three days after the treatment.
(§3) The results of the tests are given in Table III for each of the Products, at the rate in parts per million given in the second column as a grading of mortality designated as A, B or C wherein A indicates 80-100% mortality or knockdown, B indicates 50-79% mortality or knockdown and C indicates less than 50% mortality or knockdown.

[2] = system: Heliothis virescens (tobacco budworm - larvae); experiment: Residual test on tobacco budworm larvae (HV), Cotton leaf, mortality; conditions: 48 h, read-out: HV grading of mortality
Experimental: as §1, §2, §3
(tobacco budworm - larvae)

[3] = system: Tetranychus urticae (spider mites - ova); experiment: Contact test on spider mites - ova (TUe), French bean leaf, mortality; conditions: 144 h, read-out: TUe grading of mortality
Experimental: as §1, §2, §3

[4] = system: Musca domestica (houseflies - adults); experiment: Contact test on houseflies - adults (MD), Cotton wool/sugar, mortality; conditions: 72 h, read-out: MD grading of mortality
Experimental: as §1, §2, §3

Myzus persicae (aphids) = experiment: Contact test on aphids (MP), Chinese Cabbage leaf, mortality; conditions: 72 h, read-out: MP grading of mortality
Experimental: as §1, §2, §3

[5] = system: Tetranychus urticae (spider mites - adult); experiment: Contact test on spider mites - adult (TUa), French bean leaf, mortality; conditions: 72 h, read-out: TUa grading of mortality
Experimental: as §1, §2, §3

[6] = system: Spodoptera exigua (lesser army worm - larvae); experiment: Residual test on lesser army worm larvae (SP), Cotton leaf, mortality; conditions: 48 h, read-out: SP grading of mortality
Experimental: as §1, §2, §3
(lesser army worm - larvae)

[7] = system: Musca domestica (houseflies - adults); experiment: Knockdown test on houseflies - adults (MD/KD), Cotton wool/sugar; conditions: 500 ppm, 4 hours, read-out: MD/KD grading of knockdown
Experimental: as §1, §2
In the case of the species Musca domestica (housefly), additional tests to determine the knockdown effect of the compounds were performed. PG,163
as §3

[8] = system: Nephotettix cincticeps (green leaf hopper - nymphs); experiment: Contact test on green leaf hopper nymphs (NC), Rice plant, mortality; conditions: 48 h, read-out: NC grading of mortality
Experimental: as §1, §2, §3
NC Nephotettix cincticeps

[9] = system: Blattella germanica (cockroach nymphs); experiment: Contact test on cockroach nymphs (BG/C), Plastic pot, mortality; conditions: 48 h, read-out: BG/C grading of mortality
Experimental: as §1, §2, §3
BG/C Blattella germanica

Structure (SMILES)	mortality at 500 ppm ([1]; 500 ppm, residual, 2 days) [%]	mortality at 500 ppm [2] [%]	mortality at 500 ppm ([3]; 500 ppm, contact, 6 days) [%]	mortality at 500 ppm ([4]; 500 ppm, contact, 3 days) [%]	mortality at 500 ppm (Myzus persicae (aphids); 500 ppm, contact, 3 days) [%]	mortality at 500 ppm ([5]; 500 ppm, contact, 3 days) [%]	mortality at 500 ppm ([6]; 500 ppm, residual, 2 days) [%]	pest or weed control at 500 ppm [7] [%]	mortality at 500 ppm ([8]; 500 ppm, contact, 2 days) [%]	mortality at 500 ppm ([9]; 500 ppm, contact, 2 days) [%]	mortality at 500 ppm [1] [%]	mortality at 500 ppm [3] [%]	mortality at 500 ppm [4] [%]	mortality at 500 ppm (Myzus persicae (aphids)) [%]	mortality at 500 ppm [5] [%]	mortality at 500 ppm [6] [%]	mortality at 500 ppm [8] [%]	mortality at 500 ppm [9] [%]
CC(C)(C)c1ncc(C(C(=O)OCc2ccc(F)c(Cc3ccccc3)c2)C(C)(C)C)cn1 (racemic) [Compound 18, 3-benzyl-4-fluorobenzyl (RS)-2-[2-(1,1-dimethylethyl)pyrimidin-5-yl]-3,3-dimethylbutanoate]	80 to 100	80 to 100	< 50	< 50	80 to 100	80 to 100	80 to 100	80 to 100	80 to 100	< 50	–	–	–	–	–	–	–	–
C=CCC(C(=O)OCc1c(F)c(F)c(COC)c(F)c1F)c1cnc(C(C)(C)C)nc1 (racemic) [Compound 212, 4-(methoxymethyl)-2,3,5,6-tetrafluorobenzyl (RS)-2-[2-(1,1-dimethylethyl)pyrimidin-5-yl]pent-4-enoate]	< 50	< 50	< 50	< 50	80 to 100	80 to 100	50 to 79	80 to 100	80 to 100	< 50	–	–	–	–	–	–	–	–
CCOc1c(F)c(COc2ccccc2)c(F)c(F)c1COC(=O)C(c1cnc(C(C)(C)C)nc1)C(C)(C)C (racemic) [Compound 194, 2,3,5-trifluoro-6-ethoxy-4-(phenoxymethyl)benzyl (RS)-2-[2-(1,1-dimethylethyl)pyrimidin-5-yl]-3,3-dimethylbutanoate]	< 50	< 50	< 50	< 50	< 50	80 to 100	80 to 100	< 50	< 50	< 50	–	–	–	–	–	–	–	–
CC(OC(=O)C(c1cnc(C2CC2)nc1)C(C)(C)C)c1cccc(Oc2ccccc2)n1 (racemic) [Compound 78, RS-1-(6-phenoxypyrid-2-yl)ethyl (RS)-2-(2-cyclopropylpyrimidin-5-yl)-3,3-dimethylbutanoate]	80 to 100	80 to 100	50 to 79	< 50	80 to 100	80 to 100	80 to 100	80 to 100	80 to 100	50 to 79	–	–	–	–	–	–	–	–
CC(C)=NOCc1c(F)c(F)c(COC(=O)C(c2cnc(C(C)(C)C)nc2)C(C)(C)C)c(F)c1F (racemic) [Compound 178, 4-(Prop-2-ylideneaminoxymethyl)-2,3,5,6-tetrafluorobenzyl (RS)-2-[2-(1,1-dimethylethyl)pyrimidin-5-yl]-3,3dimethylbutanoate]	< 50	< 50	< 50	< 50	80 to 100	80 to 100	< 50	< 50	80 to 100	< 50	–	–	–	–	–	–	–	–
CC[Si](CC)(CC)CCCc1c(F)c(F)c(COC(=O)C(c2cnc(C(C)(C)C)nc2)C(C)(C)C)c(F)c1F (racemic) [Compound 218, 4-[3-(triethylsilyl)prop-1-yl]-2,3,5,6-tetrafluorobenzyl (RS)-2-[2-(1,1-dimethylethyl)pyrimidin-5-yl]-3,3-dimethylbutanoate]	–	< 50	–	–	–	–	–	< 50	–	–	< 50	< 50	< 50	80 to 100	80 to 100	< 50	80 to 100	< 50

From patent US4962109A, “Insecticidally and acaricidally active pyrimidine esters and intermediates therefor” (Imperial Chemical Industries PLC, priority 1985, dated 1990)
